Measurements from PubChem BioAssay AID1963450 (Molecular Pharmacology Branch, DTP, NCI, 2024).

Test system: 556581-035-R-J1-PDC complex spheroid growth
Experiment: Anticancer human tumor 556581-035-R-J1-PDC patient-derived ovarian carcinoma cell line growth inhibition [Asc]
Conditions: for IC50: curve of first compound; for viability, T/C: stronger effect = lower value
Summary of the method: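 Complex spheroids combining tumor cells with HUVEC endothelial cells and human MSCs, at 37 degrees C, 5% CO2; agents tested alone or combined, half-log dilutions from at or near clinical Cmax, or 10 microM if Cmax unknown.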

[1] = second compound 0.1 µM, first compound 0.0316 µM
[2] = second compound 0.1 µM, first compound 0.1 µM
[3] = second compound 0.1 µM, first compound 0.316 µM
[4] = second compound 0.1 µM, first compound 1 µM
[5] = second compound 0.1 µM, first compound 3.16 µM
[6] = second compound 0.1 µM, first compound 10 µM
[7] = second compound 0.316 µM, first compound 0.0316 µM
[8] = second compound 0.316 µM, first compound 0.1 µM
[9] = second compound 0.316 µM, first compound 0.316 µM
[10] = second compound 0.316 µM, first compound 1 µM
[11] = second compound 0.316 µM, first compound 3.16 µM
[12] = second compound 0.316 µM, first compound 10 µM
[13] = second compound 1 µM, first compound 0.0316 µM
[14] = second compound 1 µM, first compound 0.1 µM
[15] = second compound 1 µM, first compound 0.316 µM
[16] = second compound 1 µM, first compound 1 µM
[17] = second compound 1 µM, first compound 3.16 µM
[18] = second compound 1 µM, first compound 10 µM
[19] = second compound 3.16 µM, first compound 0.0316 µM
[20] = second compound 3.16 µM, first compound 0.1 µM
[21] = second compound 3.16 µM, first compound 0.316 µM
[22] = second compound 3.16 µM, first compound 1 µM
[23] = second compound 3.16 µM, first compound 3.16 µM
[24] = second compound 3.16 µM, first compound 10 µM
[25] = second compound 10 µM, first compound 0.0316 µM
[26] = second compound 10 µM, first compound 0.1 µM
[27] = second compound 10 µM, first compound 0.316 µM
[28] = second compound 10 µM, first compound 1 µM
[29] = second compound 10 µM, first compound 3.16 µM
[30] = second compound 10 µM, first compound 10 µM
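Also: spheroids exposed to agents for 7 days before viability read.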

What does the source list for `C=C(F)C(=O)N1CCN(c2nc(OCC3CCCN3C)nc3c2CCN(c2cccc4cccc(Cl)c24)C3)CC1CC#N` (stereo not given) + Cc1c(S(C)(=O)=O)c(-c2cc(F)cc(N3CCN(c4ccc(NS(=O)(=O)c5ccc(NC(CCN6CCC(C(=O)OCCCP(=O)(O)O)CC6)CSc6ccccc6)c(S(=O)(=O)C(F)(F)F)c5)cc4)CC3)c2)c(-c2ccc(Cl)cc2)n1C(C)C?
IC50 (second compound 0.1 µM): 2.11 µM; IC50 (second compound 0.316 µM): 1.55 µM; IC50 (second compound 1 µM): 1.27 µM; IC50 (second compound 3.16 µM): 1.01 µM; IC50 (second compound 10 µM): 1.01 µM; viability, T/C [1]: 80.6%; viability, T/C [2]: 87.7%; viability, T/C [3]: 79.1%; viability, T/C [4]: 76.9%; viability, T/C [5]: 35.4%; viability, T/C [6]: 30.3%; viability, T/C [7]: 69.3%; viability, T/C [8]: 86.7%; viability, T/C [9]: 87.8%; viability, T/C [10]: 68.6%; viability, T/C [11]: 18.2%; viability, T/C [12]: 0.26%; viability, T/C [13]: 73.7%; viability, T/C [14]: 71.8%; viability, T/C [15]: 64.9%; viability, T/C [16]: 56.8%; viability, T/C [17]: 23.5%; viability, T/C [18]: 25.7%; viability, T/C [19]: 63.1%; viability, T/C [20]: 61.5%; viability, T/C [21]: 67.7%; viability, T/C [22]: 50.3%; viability, T/C [23]: 22.1%; viability, T/C [24]: 27%; viability, T/C [25]: 59.6%; viability, T/C [26]: 54.5%; viability, T/C [27]: 57.8%; viability, T/C [28]: 50.4%; viability, T/C [29]: 8.45%; viability, T/C [30]: 0.49%

What does the source list for `C=CC(=O)N1CCN(c2nc(=O)n(-c3c(C)ccnc3C(C)C)c3nc(-c4c(O)cccc4F)c(F)cc23)C(C)C1` (stereo not given) + Cc1c(S(C)(=O)=O)c(-c2cc(F)cc(N3CCN(c4ccc(NS(=O)(=O)c5ccc(NC(CCN6CCC(C(=O)OCCCP(=O)(O)O)CC6)CSc6ccccc6)c(S(=O)(=O)C(F)(F)F)c5)cc4)CC3)c2)c(-c2ccc(Cl)cc2)n1C(C)C?
IC50 (second compound 0.1 µM): > 10 µM; IC50 (second compound 0.316 µM): > 10 µM; IC50 (second compound 1 µM): > 10 µM; IC50 (second compound 3.16 µM): > 10 µM; IC50 (second compound 10 µM): > 10 µM; viability, T/C [1]: 86.6%; viability, T/C [2]: 83.6%; viability, T/C [3]: 78.8%; viability, T/C [4]: 89.6%; viability, T/C [5]: 80.1%; viability, T/C [6]: 57.9%; viability, T/C [7]: 90.8%; viability, T/C [8]: 98.3%; viability, T/C [9]: 79.1%; viability, T/C [10]: 80%; viability, T/C [11]: 81.8%; viability, T/C [12]: 64.9%; viability, T/C [13]: 71.8%; viability, T/C [14]: 71.6%; viability, T/C [15]: 77.6%; viability, T/C [16]: 71.5%; viability, T/C [17]: 73.6%; viability, T/C [18]: 58.9%; viability, T/C [19]: 72.1%; viability, T/C [20]: 78.1%; viability, T/C [21]: 62.2%; viability, T/C [22]: 72%; viability, T/C [23]: 66.4%; viability, T/C [24]: 56.8%; viability, T/C [25]: 66.8%; viability, T/C [26]: 59.5%; viability, T/C [27]: 55.9%; viability, T/C [28]: 69.5%; viability, T/C [29]: 59.6%; viability, T/C [30]: 46.4%

`CCN1C(C(=O)NC23CCC(C(=O)O)(CC2)CC3)C(c2cccc(Cl)c2F)C2(C(=O)Nc3cc(Cl)ccc32)C12CCCCC2` (stereo not given) + Cc1c(S(C)(=O)=O)c(-c2cc(F)cc(N3CCN(c4ccc(NS(=O)(=O)c5ccc(NC(CCN6CCC(C(=O)OCCCP(=O)(O)O)CC6)CSc6ccccc6)c(S(=O)(=O)C(F)(F)F)c5)cc4)CC3)c2)c(-c2ccc(Cl)cc2)n1C(C)C was tested. Which IC50 (second compound 0.1 µM) did it give?
Its IC50 is greater than 3 µM.

What about the IC50 (second compound 0.316 µM) of the same compound?
Its IC50 is greater than 3 µM.

And the IC50 (second compound 1 µM)?
Its IC50 is greater than 3 µM.

What about the IC50 (second compound 3.16 µM) of the same compound?
The IC50 was greater than 3 µM.

And the IC50 (second compound 10 µM)?
Its IC50 is 0.812 µM.

What about the viability, T/C (second compound 0.1 µM, first compound 0.00949 µM) of the same compound?
The viability, T/C was 80.2%.

What about the viability, T/C (second compound 0.1 µM, first compound 0.03 µM) of the same compound?
The viability, T/C was 84.5%.

And the viability, T/C (second compound 0.1 µM, first compound 0.0949 µM)?
The viability, T/C was 89.2%.

What about the viability, T/C (second compound 0.1 µM, first compound 0.3 µM) of the same compound?
The viability, T/C was 81.3%.

And the viability, T/C (second compound 0.1 µM, first compound 0.949 µM)?
Its viability, T/C is 82%.

What about the viability, T/C (second compound 0.1 µM, first compound 3 µM) of the same compound?
Its viability, T/C is 75.8%.

And the viability, T/C (second compound 0.316 µM, first compound 0.00949 µM)?
The viability, T/C was 82.2%.

And the viability, T/C (second compound 0.316 µM, first compound 0.03 µM)?
Its viability, T/C is 77.6%.

And the viability, T/C (second compound 0.316 µM, first compound 0.0949 µM)?
Its viability, T/C is 85.3%.

And the viability, T/C (second compound 0.316 µM, first compound 0.3 µM)?
The viability, T/C was 68.3%.

And the viability, T/C (second compound 0.316 µM, first compound 0.949 µM)?
Its viability, T/C is 64%.

What about the viability, T/C (second compound 0.316 µM, first compound 3 µM) of the same compound?
Its viability, T/C is 66.4%.

What about the viability, T/C (second compound 1 µM, first compound 0.00949 µM) of the same compound?
Its viability, T/C is 87%.

What about the viability, T/C (second compound 1 µM, first compound 0.03 µM) of the same compound?
Its viability, T/C is 74.2%.

What about the viability, T/C (second compound 1 µM, first compound 0.0949 µM) of the same compound?
The viability, T/C was 80.1%.

What about the viability, T/C (second compound 1 µM, first compound 0.3 µM) of the same compound?
Its viability, T/C is 78.1%.

What about the viability, T/C (second compound 1 µM, first compound 0.949 µM) of the same compound?
The viability, T/C was 60.2%.

And the viability, T/C (second compound 1 µM, first compound 3 µM)?
Its viability, T/C is 52.1%.

And the viability, T/C (second compound 3.16 µM, first compound 0.00949 µM)?
Its viability, T/C is 65.8%.

And the viability, T/C (second compound 3.16 µM, first compound 0.03 µM)?
Its viability, T/C is 68.3%.

And the viability, T/C (second compound 3.16 µM, first compound 0.0949 µM)?
The viability, T/C was 74.8%.

What about the viability, T/C (second compound 3.16 µM, first compound 0.3 µM) of the same compound?
The viability, T/C was 69.4%.

What about the viability, T/C (second compound 3.16 µM, first compound 0.949 µM) of the same compound?
The viability, T/C was 77.1%.

What about the viability, T/C (second compound 3.16 µM, first compound 3 µM) of the same compound?
Its viability, T/C is 47.2%.

And the viability, T/C (second compound 10 µM, first compound 0.00949 µM)?
The viability, T/C was 60.2%.

And the viability, T/C (second compound 10 µM, first compound 0.03 µM)?
Its viability, T/C is 67.6%.

And the viability, T/C (second compound 10 µM, first compound 0.0949 µM)?
Its viability, T/C is 55.6%.

And the viability, T/C (second compound 10 µM, first compound 0.3 µM)?
The viability, T/C was 58.7%.

And the viability, T/C (second compound 10 µM, first compound 0.949 µM)?
Its viability, T/C is 49%.

What about the viability, T/C (second compound 10 µM, first compound 3 µM) of the same compound?
Its viability, T/C is 30.8%.
